Some test systems named below: RXF 393; EKVX; Malme-3M; SN12C; UACC-62; OVCAR-5; CCRF-CEM; 786-0; DU-145; SF-295; SF-539; OVCAR-8; SK-MEL-2; M14; SR; BT-549; NCI/ADR-RES; MDA-MB-435; TK-10.
Common to all, as to assay: DTP human tumour cell line panel, 48 h

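Briefly, cells in 96-well plates were exposed to five compound concentrations for 48 h, and endpoints were estimated by linear interpolation. At the GI50, growth is halved.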 Activity calls are given as the source filed them. Rule as the data show it: active = GI50 up to about 1.1 µM and inactive = higher.

Usually GI50 stands for the concentration at which growth is held to half of that of the control. Consider `COc1ccc2c3c([nH]c2c1)[C@H]1C[C@H]2[C@H](C[C@@H](O)[C@H](OC)[C@H]2C(=O)O)CN1CC3`, for which the GI50 with RXF 393, with EKVX, in the experiment on Malme-3M, in the experiment with SN12C, in the experiment on UACC-62 and with OVCAR-5 was > 100 µM (inactive) in each case. Further, the GI50 in the experiment on CCRF-CEM, with 786-0, with DU-145, in the experiment on SF-295, in the experiment on SF-539 and in the experiment on OVCAR-8 was > 100 µM (inactive) each time. Also, the GI50 in the experiment with SK-MEL-2, in the experiment on M14, in the experiment on SR, in the experiment on BT-549, in the experiment with NCI/ADR-RES and with MDA-MB-435 was > 100 µM (inactive) throughout. Further, in the experiment on TK-10, the GI50 was > 100 µM (inactive).
`COC(=O)C(Cc1ccc(OC)cc1O)NC(=O)OC(C)(C)C` (stereo not given): the GI50 in the experiment with RXF 393 is > 100 µM (inactive); in the experiment with EKVX it was > 100 µM (inactive); in the experiment with Malme-3M, 78.5 µM (inactive); in the experiment with SN12C, > 100 µM (inactive); with UACC-62 it was > 100 µM (inactive); in the experiment on OVCAR-5, > 100 µM (inactive). Further, the GI50 with CCRF-CEM, with 786-0, in the experiment on DU-145, with SF-295, in the experiment with SF-539 and in the experiment on OVCAR-8 was > 100 µM (inactive) in each case. Further, the GI50 in the experiment with SK-MEL-2, with M14, in the experiment with SR, with BT-549, in the experiment with NCI/ADR-RES and in the experiment with MDA-MB-435 was > 100 µM (inactive) each time. The GI50 in the experiment with TK-10 is > 100 µM (inactive).
For the compound `COC(=O)C1=C(O)C(C(=O)OC)[C@@]2(O)[C@@H](C(=O)OC)C(c3ccc(OC(=O)/C(=C/c4ccccc4)c4ccccc4)cc3)C[C@@H]1[C@@H]2C(=O)OC` (stereo not given in full), the GI50 was 9.71 µM (inactive) in the experiment with RXF 393; 64.6 µM (inactive) with EKVX; > 100 µM (inactive) in the experiment on Malme-3M; 30.8 µM (inactive) in the experiment on SN12C; 3.47 µM (inactive) in the experiment on UACC-62; 80.4 µM (inactive) with OVCAR-5. In addition, the GI50 in the experiment on CCRF-CEM was 4.9 µM (inactive); in the experiment on 786-0 it was 6.46 µM (inactive); in the experiment on DU-145, 20.5 µM (inactive); in the experiment on SF-295 it was 38.1 µM (inactive); in the experiment with SF-539, 2.46 µM (inactive); with OVCAR-8, 14.1 µM (inactive). In addition, the GI50 is 14.9 µM (inactive) with SK-MEL-2; 7.03 µM (inactive) in the experiment with M14; 6.73 µM (inactive) in the experiment on SR; > 100 µM (inactive) with BT-549; 44.2 µM (inactive) in the experiment on NCI/ADR-RES; 10.5 µM (inactive) with MDA-MB-435. The GI50 in the experiment with TK-10 was 13.2 µM (inactive).
As to `O=C1c2scnc2-c2nccc3c2c1nc1ccccc13` [KUANONIAMINE A], the GI50 in the experiment with RXF 393 was 1.77 µM (inactive); in the experiment with EKVX, 2.92 µM (inactive); with Malme-3M, 0.684 µM (active); in the experiment with SN12C, 1.4 µM (inactive); with UACC-62, 0.38 µM (active); with OVCAR-5 it was 2.63 µM (inactive). Moreover, the concentration for 50% growth inhibition (GI50) is 0.416 µM (active) in the experiment on CCRF-CEM; 1.21 µM (inactive) in the experiment on 786-0; 1.6 µM (inactive) in the experiment on DU-145; 1.58 µM (inactive) with SF-295; 0.232 µM (active) in the experiment with SF-539; 0.226 µM (active) in the experiment on OVCAR-8. For the same compound, the GI50 with SK-MEL-2 was 1.01 µM (active); in the experiment with M14, 0.564 µM (active); in the experiment with SR, 0.137 µM (active); in the experiment with BT-549, 1.25 µM (inactive); in the experiment with NCI/ADR-RES, 0.231 µM (active); with MDA-MB-435, 0.191 µM (active). In the experiment on TK-10, the GI50 was 1.46 µM (inactive).
For `COc1ccc(/C(CC2OC(=O)c3ccccc32)=N\NC(=O)C[N+](C)(C)C)cc1` (stereo not given), the GI50 with RXF 393 was 25.4 µM (inactive); in the experiment with EKVX, 39.4 µM (inactive); in the experiment on Malme-3M it was 31.1 µM (inactive); with SN12C, 34.7 µM (inactive); in the experiment with UACC-62, 15.4 µM (inactive); in the experiment with OVCAR-5 it was > 100 µM (inactive). For the same compound, the GI50 is 25.1 µM (inactive) in the experiment on CCRF-CEM; 23.6 µM (inactive) in the experiment on 786-0; 20.5 µM (inactive) in the experiment with DU-145; 47.5 µM (inactive) in the experiment on SF-295; 31.2 µM (inactive) with SF-539; 19.5 µM (inactive) in the experiment with OVCAR-8. Moreover, the GI50 with SK-MEL-2 is 23.9 µM (inactive); in the experiment on M14 it was 38 µM (inactive); in the experiment with SR, 18.2 µM (inactive); with BT-549 it was 21.5 µM (inactive); in the experiment on NCI/ADR-RES, 21.2 µM (inactive); in the experiment on MDA-MB-435, 24.3 µM (inactive). Also, in the experiment with TK-10, the GI50 was 33.4 µM (inactive).
In the case of `O=C(/C=C/c1ccccc1)c1ccccc1` [CHALCONE], the GI50 with RXF 393, with EKVX, in the experiment with Malme-3M, in the experiment on SN12C, in the experiment on UACC-62 and in the experiment on OVCAR-5 was > 10 µM (inactive) in each case. Moreover, the GI50 in the experiment with CCRF-CEM was > 4.83 µM (inactive); in the experiment with 786-0, > 10 µM (inactive); in the experiment with DU-145, > 10 µM (inactive); in the experiment with SF-295 it was > 10 µM (inactive); in the experiment with SF-539, > 10 µM (inactive); with OVCAR-8 it was > 10 µM (inactive). Further, the GI50 was > 10 µM (inactive) with SK-MEL-2; > 10 µM (inactive) in the experiment on M14; > 6.58 µM (inactive) in the experiment with SR; > 10 µM (inactive) in the experiment on BT-549; > 10 µM (inactive) in the experiment on NCI/ADR-RES; > 8.13 µM (inactive) in the experiment on MDA-MB-435. In addition, the GI50 in the experiment on TK-10 was > 10 µM (inactive).
With `COc1ccc(C2C(C=O)C(N3CCN(C)CC3)=Nc3nc4ccccc4n32)cc1` (stereo not given), the GI50 was 13.6 µM (inactive) with RXF 393; 27.7 µM (inactive) with EKVX; 10.8 µM (inactive) in the experiment on Malme-3M; 17.9 µM (inactive) in the experiment with SN12C; 14.1 µM (inactive) in the experiment with UACC-62; 23.3 µM (inactive) in the experiment on OVCAR-5. Besides, the GI50 with CCRF-CEM is 2.31 µM (inactive); in the experiment with 786-0, 20 µM (inactive); in the experiment with DU-145, 17.8 µM (inactive); with SF-295, 19.9 µM (inactive); in the experiment on SF-539 it was 22.1 µM (inactive); in the experiment on OVCAR-8 it was 16.2 µM (inactive). Further, the GI50 with SK-MEL-2 was 13.1 µM (inactive); in the experiment on M14, 17.4 µM (inactive); in the experiment with SR, 0.0382 µM (active); in the experiment on BT-549 it was 14 µM (inactive); with NCI/ADR-RES, 17.4 µM (inactive); in the experiment with MDA-MB-435 it was 15.5 µM (inactive). Besides, the GI50 in the experiment with TK-10 is 14.3 µM (inactive).
In the case of `O=C(O)c1cnc2cc(OCc3ccccc3)ccc2c1O`, the GI50 in the experiment with RXF 393 is 18.3 µM (inactive); in the experiment with EKVX, 22.8 µM (inactive); with Malme-3M it was 13.8 µM (inactive); in the experiment with SN12C it was 18.2 µM (inactive); in the experiment on UACC-62, 16.8 µM (inactive); in the experiment with OVCAR-5, 27.3 µM (inactive). In addition, the GI50 is 5.37 µM (inactive) in the experiment with CCRF-CEM; 18.5 µM (inactive) with 786-0; 18 µM (inactive) in the experiment with DU-145; 19.3 µM (inactive) in the experiment on SF-295; 19 µM (inactive) in the experiment on SF-539; 19 µM (inactive) in the experiment on OVCAR-8. Further, the GI50 in the experiment with SK-MEL-2 was 18.5 µM (inactive); in the experiment on M14, 17 µM (inactive); with SR, 23 µM (inactive); in the experiment with BT-549, 18.4 µM (inactive); in the experiment with NCI/ADR-RES it was 18.1 µM (inactive); with MDA-MB-435, 16.2 µM (inactive). In addition, the GI50 with TK-10 was 19.9 µM (inactive).
Regarding `OC/C=C/[C@H](OCc1ccccc1)[C@H](/C=C/CO)OCc1ccccc1`, the GI50 in the experiment with RXF 393 was 9.06 µM (inactive); in the experiment with EKVX, 47.6 µM (inactive); in the experiment with Malme-3M, > 100 µM (inactive); in the experiment with SN12C, 47.8 µM (inactive); in the experiment on UACC-62, 80 µM (inactive); in the experiment on OVCAR-5, > 100 µM (inactive). The GI50 in the experiment with CCRF-CEM is 20.1 µM (inactive); in the experiment on 786-0, 44.9 µM (inactive); in the experiment on DU-145, 81.1 µM (inactive); in the experiment with SF-295, 32.5 µM (inactive); with SF-539 it was > 100 µM (inactive); in the experiment with OVCAR-8 it was 46.2 µM (inactive). Besides, the GI50 was 37.4 µM (inactive) in the experiment on SK-MEL-2; 76.6 µM (inactive) with M14; 18.8 µM (inactive) with SR; 59.2 µM (inactive) with BT-549; 32.4 µM (inactive) with NCI/ADR-RES; 40.1 µM (inactive) in the experiment with MDA-MB-435. The GI50 in the experiment on TK-10 was 73.1 µM (inactive).
As for `CC(Oc1ccccc1)C(=O)NNC(=O)OC(C)(C)C` (stereo not given), the GI50 in the experiment with RXF 393, in the experiment with EKVX, in the experiment on Malme-3M, with SN12C, with UACC-62 and in the experiment on OVCAR-5 was > 100 µM (inactive) each time. Moreover, the GI50 with CCRF-CEM, with 786-0, in the experiment on DU-145, in the experiment with SF-295, in the experiment on SF-539 and with OVCAR-8 was > 100 µM (inactive) in each case. The GI50 in the experiment with SK-MEL-2, in the experiment on M14, in the experiment on SR, in the experiment with BT-549, in the experiment with NCI/ADR-RES and in the experiment on MDA-MB-435 was > 100 µM (inactive) each time. Also, the GI50 with TK-10 was > 100 µM (inactive).

For the origin of these results see ChEMBL document CHEMBL1201862, “PubChem BioAssay data set” (2004).
